Data reported in BindingDB's records for doi:10.3109/14756366.2013.777334 (S.G.S.I.T.S., 2014).

Legend:
Test in all cases: CA Inhibition Assay
Details in all cases: pH 7.5; 4 °C
Carbonic anhydrase 1 = Carbonic anhydrase 1 (Homo sapiens, UniProt P00915)
Method: (§1) An applied photophysics stopped-flow instrument has been used for assaying the CA catalyzed CO2 hydration activity. […] The CO2 concentrations ranged from 1.7 to 17mM for the determination of the kinetic parameters and inhibition constants. […] The uncatalyzed rates were determined in the same manner and subtracted from the total observed rates. Stock solutions of inhibitor (0.1mM) were prepared in distilled-deionized water and dilutions up to 0.01nM were done thereafter with distilled deionized water.

Carbonic anhydrase 12 = Carbonic anhydrase 12 (Homo sapiens, UniProt O43570)
Sequence of Carbonic anhydrase 12 (O43570 whole entry): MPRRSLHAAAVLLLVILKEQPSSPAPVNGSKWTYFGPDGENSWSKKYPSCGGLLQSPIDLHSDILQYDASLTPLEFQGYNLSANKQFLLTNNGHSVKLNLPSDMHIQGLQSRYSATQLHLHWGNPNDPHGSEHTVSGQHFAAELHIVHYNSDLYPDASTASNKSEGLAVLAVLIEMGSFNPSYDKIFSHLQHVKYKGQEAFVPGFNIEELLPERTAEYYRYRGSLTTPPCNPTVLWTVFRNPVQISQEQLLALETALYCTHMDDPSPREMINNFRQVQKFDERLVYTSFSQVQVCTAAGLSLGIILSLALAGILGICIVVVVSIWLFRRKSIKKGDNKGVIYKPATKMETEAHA
Method: as §1

Carbonic anhydrase 2 = Carbonic anhydrase 2 (Homo sapiens, UniProt P00918)
Method: as §1

Sequence of Carbonic anhydrase 1 (P00915 whole entry): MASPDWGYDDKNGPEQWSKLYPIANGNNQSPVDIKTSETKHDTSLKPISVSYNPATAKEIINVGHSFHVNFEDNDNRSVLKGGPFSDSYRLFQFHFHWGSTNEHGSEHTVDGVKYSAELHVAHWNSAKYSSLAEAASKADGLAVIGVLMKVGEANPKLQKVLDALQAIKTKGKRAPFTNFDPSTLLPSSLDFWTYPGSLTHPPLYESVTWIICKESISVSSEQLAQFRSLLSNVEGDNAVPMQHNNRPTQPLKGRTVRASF

| Ki (Carbonic anhydrase 1) | Ki (Carbonic anhydrase 12) | Ki (Carbonic anhydrase 2) | Compound |
| --- | --- | --- | --- |
| 8.2 µM | 3.3 µM | > 200 µM | Cc1cc(=O)oc2cc3ccccc3cc12 [4-Methyl-2H-benzo[g]chromen-2-one (5)] |
| 4.8 µM | 4.3 µM | > 200 µM | Cc1cc(=O)oc2cc(O)ccc12 [4-Methyl-7-hydroxycoumarin] |
| 8.7 µM | 6.6 µM | > 200 µM | Cc1cc(=O)oc2c(O)c(O)ccc12 [7,8-Dihydroxy-4-methyl-2H-chromen-2-one (3)] |
| 8.4 µM | 6.4 µM |  | Cc1cc(=O)oc2cc(O)cc(O)c12 [Coumarin derivative, 1b] |

| Compound | Ki (Carbonic anhydrase 1) | Ki (Carbonic anhydrase 12) | Ki (Carbonic anhydrase 2) |
| --- | --- | --- | --- |
| Cc1cc(=O)oc2c1ccc1ccccc12 [4-Methyl-2H-benzo[h]chromen-2-one (4)] | 9 µM | 5.5 µM | > 200 µM |
